Our source for the inhibition values is ChEMBL document CHEMBL4033658, “Design and expeditious synthesis of organosilanes as potent antivirals targeting multidrug-resistant influenza A viruses” (Eur J Med Chem, 2017).

The subject of this test is Influenza A virus. Briefly: Inhibition of Influenza A virus AM2-S31N mutant proton channel expressed in Xenopus laevis frog oocytes at 100 uM after 2 mins by electrophysiological two-electrode voltage clamp assay. It is filed as cell-based. In general terms: Two-electrode voltage clamp is typically applied to oocytes expressing channels or transporters.

In general, inhibition refers to the relative decrease from the control value, in per cent. On to `C[Si](C)(C)c1ccc(CNC23CC4CC(CC(C4)C2)C3)nc1`, for which the inhibition came to 81.3%. Consider `CC(C)(C)c1ccc(CNC23CC4CC(CC(O)(C4)C2)C3)cc1`, for which the inhibition is 75.4%. `CC(C)[Si](c1ccc(CNC23CC4CC(CC(O)(C4)C2)C3)cc1)(C(C)C)C(C)C` returned an inhibition of 33.6%.

For `C[Si](C)(c1ccccc1)c1ccc(CNC23CC4CC(CC(O)(C4)C2)C3)cc1`, the inhibition came out at 84.9%.

`C[Si](C)(C)c1ccc(CNC23CC4CC(CC(C4)C2)C3)cc1`: the inhibition worked out at 77.5%. For `C[Si](C)(C)c1ccc(CNC23CC4CC(CC(O)(C4)C2)C3)cc1`, the inhibition was 86.7%. `CC(C)(C)c1ccc(CNC23CC4CC(CC(C4)C2)C3)cc1`: the inhibition amounted to 72.6%.
